This passage reports MIC results from patent US4698352A, “4-oxo-1,4-dihydronicotinic acid derivatives, salts thereof, and antibacterial agents containing the same” (Toyama Chemical Co., Ltd., priority 1982, dated 1987).

What all share (experiment): Antibacterial activity (MIC), agar dilution
Holding throughout (type): cell-based
On the technique in general: Agar dilution tests growth on a series of plates holding different concentrations.

The test system of one assay is E. coli NIHJ JC-2. To be noted: Escherichia coli, NIHJJC2, 20 h, E. coli NIHJ JC-2; 10^6 cells per ml; 37° C., 20 hours; read-out: MIC. The source says:
(§1) The amount of bacteria inoculated was 10^4 cells per plate (10^6 cells per ml).

The test system of another assay is E. coli TK-111. To be noted: Escherichia coli, TK111, 20 h, E. coli TK-111; 10^6 cells per ml; 37° C., 20 hours; read-out: MIC.
Excerpt: as §1

For the next assay, the system named is Ent. cloacae IID977. To be noted: Enterobacter cloacae, IID977, 20 h, Ent. cloacae IID977; 10^6 cells per ml; 37° C., 20 hours; read-out: MIC.
Excerpt: as §1

A further assay has as its system Kl. pneumoniae Y-41. As to conditions: Klebsiella pneumoniae, Y41, 10^6 cells per ml, 37° C., 20 hours, read-out: MIC.
Excerpt: as §1

The test system of the next assay is Kl. pneumoniae Y-50. To be noted: Klebsiella pneumoniae, Y50, 20 h, 10^6 cells per ml, 37° C., read-out: MIC.
Excerpt: as §1

The test system of a further assay is Pro. mirabilis T-111. To be noted: Proteus mirabilis, 37° C.
Excerpt: as §1

The next assay relates to Pro. morganii T-216. As to conditions: Morganella morganii, 37° C.
Excerpt: as §1

Another assay concerns Pro. vulgaris GN3027. As to conditions: Proteus vulgaris, GN3027, 20 h, Pro. vulgaris GN3027; 10^6 cells per ml; 37° C., 20 hours; read-out: MIC.
Excerpt: as §1

The next assay has as its system Ps. aeruginosa IFO3445. As to conditions: Pseudomonas aeruginosa; Ps. aeruginosa IFO3445; 10^6 cells per ml; 37° C., 20 hours; read-out: MIC.
Excerpt: as §1

The test system of a further assay is Ps. aeruginosa S-68. As to conditions: Pseudomonas aeruginosa.
Excerpt: as §1

For the next assay, the system named is St. aureus FDA209P. To be noted: Staphylococcus aureus, FDA209P, 20 h.
Excerpt: as §1

In another assay the test system is E. coli TK-3*. To be noted: Escherichia coli, 20 h, E. coli TK-3, penicillinase-producing; 10^6 cells per ml; read-out: MIC.
Excerpt: as §1
(§2) * Penicillinase-producing bacteria

In another assay the test system is Kl. pneumoniae Y-4*. To be noted: Klebsiella pneumoniae, 20 h, Kl. pneumoniae Y-4, penicillinase-producing; 10^6 cells per ml; read-out: MIC.
Excerpt: as §1, §2

The next assay has as its system Ps. aeruginosa GN3379*. To be noted: Pseudomonas aeruginosa, 20 h; Ps. aeruginosa GN3379, penicillinase-producing; 10^6 cells per ml; read-out: MIC.
Excerpt: as §1, §2

A further assay relates to St. aureus F-137*. As to conditions: Staphylococcus aureus, 20 h.
Excerpt: as §1, §2

For a further assay, the system named is E. coli GN5482**. As to conditions: Escherichia coli, 20 h; E. coli GN5482, cephalospolinase-producing; 10^6 cells per ml; read-out: MIC.
Excerpt: as §1
(§3) ** Cephalospolinase-producing bacteria

For a further assay, the system named is Pro. vulgaris GN76**. As to conditions: Proteus vulgaris.
Excerpt: as §1, §3

A further assay concerns Ps. aeruginosa GN918**. To be noted: Pseudomonas aeruginosa, Ps. aeruginosa GN918, cephalospolinase-producing, 10^6 cells per ml.
Excerpt: as §1, §3

Where [1] appears, read: T216, 10^6 cells per ml, 20 hours, read-out: MIC.
Where [2] appears, read: S68, Ps. aeruginosa S-68, 10^6 cells per ml, 37° C., 20 hours, read-out: MIC.
[3] abbreviates: 20 h, Pro. vulgaris GN76, cephalospolinase-producing, 10^6 cells per ml, read-out: MIC.
The mark [4] stands for this setting: St. aureus FDA209P, 10^6 cells per ml, 37° C., 20 hours, read-out: MIC.
Where [5] appears, read: St. aureus F-137, penicillinase-producing, 10^6 cells per ml, read-out: MIC.

Converted amounts (≈) assume the structure as drawn. Like-named read-outs stand apart in the source and are kept apart here.

For orientation: MIC means the least concentration at which growth counts as inhibited. On to `Cc1cc(F)ccc1-n1cc(C(=O)O)c(=O)cc1C1CC=CCC1` (stereo not drawn), for which the MIC with E. coli NIHJ JC-2 amounted to 6.25 µg/mL (≈ 19.1 µM); in the assay with E. coli TK-111, 1.56 µg/mL (≈ 4.77 µM); in the assay on Ent. cloacae IID977, 12.5 µg/mL (≈ 38.2 µM); with Kl. pneumoniae Y-41, 25 µg/mL (≈ 76.4 µM); in the assay with Kl. pneumoniae Y-50, 3.13 µg/mL (≈ 9.56 µM); with Pro. mirabilis T-111 (T111, 10^6 cells per ml, 20 hours, read-out: MIC) it was 25 µg/mL (≈ 76.4 µM). The MIC in the assay with Pro. morganii T-216 (setting [1]) stood at 12.5 µg/mL (≈ 38.2 µM); in the assay on Pro. vulgaris GN3027 it was 0.39 µg/mL (≈ 1.19 µM); with Ps. aeruginosa IFO3445, 100 µg/mL (≈ 305 µM); in the assay on Ps. aeruginosa S-68 (setting [2]), 50 µg/mL (≈ 153 µM); against St. aureus FDA209P it was 3.13 µg/mL (≈ 9.56 µM); with E. coli TK-3* it was 12.5 µg/mL (≈ 38.2 µM). Also, the minimal inhibitory concentration (MIC) came out at 25 µg/mL (≈ 76.4 µM) in the assay with Kl. pneumoniae Y-4*; 100 µg/mL (≈ 305 µM) in the assay on Ps. aeruginosa GN3379*; 3.13 µg/mL (≈ 9.56 µM) in the assay on St. aureus F-137*; 0.78 µg/mL (≈ 2.38 µM) with E. coli GN5482**; 6.25 µg/mL (≈ 19.1 µM) with Pro. vulgaris GN76** (setting [3]); 12.5 µg/mL (≈ 38.2 µM) in the assay on Ps. aeruginosa GN918** (20 h, read-out: MIC).
Regarding `Cc1nc2ccc(-c3cc(=O)c(C(=O)O)cn3-c3ccc(O)cc3)cc2s1`, the MIC with E. coli NIHJ JC-2 came to 0.39 µg/mL (≈ 1.03 µM); in the assay on E. coli TK-111, 0.2 µg/mL (≈ 0.529 µM); in the assay on Ent. cloacae IID977 it was 1.56 µg/mL (≈ 4.12 µM); in the assay on Kl. pneumoniae Y-41 it was 3.13 µg/mL (≈ 8.27 µM); in the assay with Kl. pneumoniae Y-50, 0.39 µg/mL (≈ 1.03 µM); against Pro. mirabilis T-111 (T111, 20 h, 10^6 cells per ml), 3.13 µg/mL (≈ 8.27 µM). In addition, the MIC in the assay with Pro. morganii T-216 (T216, 20 h, 10^6 cells per ml) came out at 3.13 µg/mL (≈ 8.27 µM); in the assay with Pro. vulgaris GN3027, 0.39 µg/mL (≈ 1.03 µM); in the assay with Ps. aeruginosa IFO3445, 25 µg/mL (≈ 66.1 µM); in the assay on Ps. aeruginosa S-68 (setting [2]), 12.5 µg/mL (≈ 33 µM); in the assay on St. aureus FDA209P (setting [4]), 0.39 µg/mL (≈ 1.03 µM); with E. coli TK-3* it was 0.78 µg/mL (≈ 2.06 µM). Besides, the minimum inhibitory concentration (MIC) in the assay on Kl. pneumoniae Y-4* was 3.13 µg/mL (≈ 8.27 µM); in the assay with Ps. aeruginosa GN3379*, 12.5 µg/mL (≈ 33 µM); in the assay on St. aureus F-137* (setting [5]) it was 0.39 µg/mL (≈ 1.03 µM); in the assay with E. coli GN5482** it was not above 0.05 µg/mL; in the assay on Pro. vulgaris GN76** (setting [3]) it was 0.78 µg/mL (≈ 2.06 µM); in the assay with Ps. aeruginosa GN918** (20 h, read-out: MIC), 1.56 µg/mL (≈ 4.12 µM).
Turning to `Cc1nc2cc(-c3cc(=O)c(C(=O)O)cn3-c3ccc(O)cc3)ccc2s1`, the MIC came to 0.39 µg/mL (≈ 1.03 µM) in the assay with E. coli NIHJ JC-2; 0.1 µg/mL (≈ 0.264 µM) in the assay with E. coli TK-111; 1.56 µg/mL (≈ 4.12 µM) with Ent. cloacae IID977; 3.13 µg/mL (≈ 8.27 µM) in the assay on Kl. pneumoniae Y-41; 0.78 µg/mL (≈ 2.06 µM) with Kl. pneumoniae Y-50; 3.13 µg/mL (≈ 8.27 µM) against Pro. mirabilis T-111 (T111, 20 h, 10^6 cells per ml). Besides, the MIC was 3.13 µg/mL (≈ 8.27 µM) against Pro. morganii T-216 (T216, 20 h, 10^6 cells per ml); 0.39 µg/mL (≈ 1.03 µM) in the assay on Pro. vulgaris GN3027; 12.5 µg/mL (≈ 33 µM) in the assay on Ps. aeruginosa IFO3445; 6.25 µg/mL (≈ 16.5 µM) in the assay on Ps. aeruginosa S-68 (setting [2]); 0.39 µg/mL (≈ 1.03 µM) in the assay on St. aureus FDA209P (setting [4]); 0.78 µg/mL (≈ 2.06 µM) in the assay with E. coli TK-3*. Besides, the MIC in the assay on Kl. pneumoniae Y-4* was 3.13 µg/mL (≈ 8.27 µM); in the assay on Ps. aeruginosa GN3379*, 6.25 µg/mL (≈ 16.5 µM); in the assay on St. aureus F-137* (setting [5]), 0.78 µg/mL (≈ 2.06 µM); in the assay with E. coli GN5482** it was not above 0.05 µg/mL; in the assay with Pro. vulgaris GN76** (setting [3]) it was 1.56 µg/mL (≈ 4.12 µM); with Ps. aeruginosa GN918** (20 h, read-out: MIC), 1.56 µg/mL (≈ 4.12 µM).
In the case of `COCOC(=O)c1cn(-c2ccc(O)cc2)c(-c2ccc(N(C)C)cc2)cc1=O`, the MIC in the assay on E. coli NIHJ JC-2 worked out at 0.39 µg/mL (≈ 0.989 µM); in the assay with E. coli TK-111, 0.2 µg/mL (≈ 0.507 µM); with Ent. cloacae IID977 it was 1.56 µg/mL (≈ 3.96 µM); in the assay with Kl. pneumoniae Y-41, 3.13 µg/mL (≈ 7.94 µM); in the assay on Kl. pneumoniae Y-50 it was 0.78 µg/mL (≈ 1.98 µM); in the assay with Pro. mirabilis T-111 (T111, 20 h, 10^6 cells per ml) it was 3.13 µg/mL (≈ 7.94 µM). The MIC in the assay on Pro. morganii T-216 (setting [1]) was found to be 1.56 µg/mL (≈ 3.96 µM); in the assay with Pro. vulgaris GN3027, 0.39 µg/mL (≈ 0.989 µM); with Ps. aeruginosa IFO3445, 6.25 µg/mL (≈ 15.8 µM); against Ps. aeruginosa S-68 (S68, 20 h) it was 3.13 µg/mL (≈ 7.94 µM); in the assay with St. aureus FDA209P (setting [4]) it was 0.39 µg/mL (≈ 0.989 µM); with E. coli TK-3*, 1.56 µg/mL (≈ 3.96 µM). Further, the MIC with Kl. pneumoniae Y-4* was 3.13 µg/mL (≈ 7.94 µM); in the assay with Ps. aeruginosa GN3379*, 6.25 µg/mL (≈ 15.8 µM); with St. aureus F-137* (setting [5]), 0.39 µg/mL (≈ 0.989 µM); in the assay with E. coli GN5482**, not above 0.05 µg/mL; against Pro. vulgaris GN76** (GN76, 20 h), 3.13 µg/mL (≈ 7.94 µM); against Ps. aeruginosa GN918** (GN918, 20 h), 3.13 µg/mL (≈ 7.94 µM).
